Laboratory results published in patent US9884126B2, “Anti-wall teichoic antibodies and conjugates” (priority 2013, dated 2018).
Values after ≈ are worked out from the molar mass of the structure shown. “Also recorded” adds a separate entry of the source.

Legend:
[1] = system: MRSA (NRS384 strain of USA300); assay: MIC determination / killing of intracellular bacteria in mouse peritoneal macrophages; assay type: cell-based, Staphylococcus aureus; details: for killing of intracellular MRSA sequestered inside macrophages: doses including clinically achieveable serum levels
[2] = system: MRSA (NRS384 strain of USA300); assay: MIC determination for extracellular bacteria; assay type: cell-based; details: Staphylococcus aureus, read-out: Extracellular MRSA MIC
Method: Dilutions of the antibiotic were made in quadruplicate in 96 well culture dishes. MRSA (NRS384 strain of USA300) was taken from an exponentially growing culture and diluted to 1×10^4 CFU/mL. Bacteria was cultured in the presence of antibiotic for 18-24 hours with shaking at 37° C. and bacterial growth was determined by reading the Optical Density (OD) at […]. The MIC was determined to be the dose of antibiotic that inhibited bacterial growth by >90%.

MRSA [3] = assay: Intravenous infection model, established infection in CB17.SCID mice; assay type: in vivo; details: treated 1 day after infection; AAC 50 mg/Kg, antibiotic 0.5 mg/Kg; kidneys day 4
Method: Mice were treated with the AAC 30 minutes after infection. To better replicate conditions likely to occur in MRSA patients seeking treatment, it was determined whether the AAC is effective at clearing an established infection and that linking of the antibiotic to an anti-S. aureus antibody provides a definite advantage over treatment with antibiotic alone. To this end, the efficacy of AAC with an equivalent dose of the antibiotic dimethyl-pipBOR was compared.
One day after infection, the mice were treated with 50 mg/Kg of S4497 antibody, 50 mg/Kg of S4497 dimethyl-pipBOR AAC 105 or with 0.5 mg/Kg of dimethyl-pipBOR antibiotic 7, the equivalent dose of antibiotic that is contained in 50 mg/Kg of AAC). Mice were sacrificed 4 days after infection and the total number of surviving bacteria per mouse (2 kidneys pooled) was determined by plating.
7 week old female mice were used for all in vivo experiments and infections were carried out by intravenous injection into the tail vein. A/J mice (Jackson Lab) were infected with a dose of 2×10^6 CFU. Balb/c mice (Charles River Laboratories, Hollister, Calif.) were infected with a dose of 2×10^7 CFU. […] The total number of bacteria recovered per mouse (2 kidneys) was determined by plating serial dilutions of the tissue homogenate in PBS 0.05% Tween on Tryptic Soy Agar with 5% defibrinated sheep blood.

[4] = system: USA300 strain of MRSA (NRS384); assay: In vitro macrophage assay (intracellular killing of opsonized MRSA); assay type: cell-based, Staphylococcus aureus; details: for Macrophage assay activity: in vitro macrophage assay (Example 18), grades 0, weak, 1+ not defined; for CFU/well after treatment: 100 μg/mL, reduced from 10,000 CFU/well
Method: (§1) Peritoneal macrophages were isolated from the peritoneum of 6-8 week old Balb/c mice (Charles River Laboratories, Hollister, Calif.). To increase the yield of macrophages, mice were pre-treated by intraperitoneal injection with 1 mL of thioglycolate media (Becton Dickinson). The thioglycolate media was prepared at a concentration of 4% in water, sterilized by autoclaving, and aged for 20 days to 6 months prior to use. Peritoneal macrophages were harvested 4 days post treatment with thioglycolate by washing the peritoneal cavity with cold phosphate buffered saline. Macrophages were plated in Dulbecco's Modified Eagle Medium (DMEM) supplemented with 10% Fetal Calf Serum, and 10 mM HEPES, without antibiotics, at a density of 4×10^5 cells/well in 24 well culture dishes. Macrophages were cultured over night to permit adherence to the plate. This assay was also utilized to test intracellular killing in non-phagocytic cell types. MG63 (CRL-1427) and A549 (CCL185) cell lines were obtained from ATCC and maintained in RPMI 1640 tissue culture media supplemented with 10 mM Hepes and 10% Fetal Calf Serum (RPMI-10). HUVEC cells were obtained from Lonza and maintained in EGM Endothelial Cell Complete Media (Lonza, Walkersville, Md.).

MRSA [5] = assay: Cathepsin release / growth inhibition assay; assay type: cell-based, S. aureus; details: overnight culture, up to 10 μg/mL of AAC
Method: An AAC comprising antibody rF1, which binds to a family of cell wall associated proteins was conjugated to a rifamycin derivative. S. aureus (Newman strain) was treated with various doses of the rF1-AAC or with equivalent doses of either antibody alone, rifampicin alone or a mixture of antibody and free rifampicin to permit antibody binding to the bacteria (opsonization) and after 1 hour incubation the opsonized bacteria were fed to macrophages (FIG. 7A).
See: page 863 of Dubowchik et al (2002) Bioconj. Chem. 13:855-869, incorporated by reference for the purposes of this assay. Cathepsin B (from bovine spleen, SIGMA C7800) was added at 10 μg/mL and the samples were incubated for 1 hour at 37° C. As a control, AAC were incubated in buffer alone. The reaction was stopped by addition of 10 volumes of bacterial growth media, Tryptic Soy Broth pH 7.4 (TSB). To estimate the total release of active antibiotic, serial dilutions of the reaction mixture were made in quadruplicate in TSB in 96 well plates and the USA300 strain of S. aureus was added to each well at a final density of 2×10^3 CFU/mL. The cultures were incubated over night at […] with shaking and bacterial growth was measured by reading absorbance at 630 nm using a plate reader.

MRSA (USA300) = assay: Peritonitis model (intraperitoneal infection); assay type: in vivo, A/J mice; details: 50 mg/Kg thirty minutes after infection; 2 days
From the text: An in vivo peritonitis model in mice was established to test the efficacy of AAC. In this model, mice are infected by intraperitoneal injection (I.P.) of MRSA and the bacterial load is monitored 2 days after infection in the peritoneal fluid and kidney. Bacteria harvested from the peritoneum could be found either as free floating extracellular bacteria or internalized inside peritoneal cells—primarily neutrophils and macrophages—that are recruited to the site of the infection.
Intraperitoneal infection model in A/J mice. Mice were infected with 5×10^7 CFU of MRSA by intraperitoneal injection and treated with 50 mg/Kg of S4497 antibody alone or with 50 mg/Kg of the S4497-pipBOR AAC 102 by intraperitoneal injection (protocol 11-2032A). Mice were sacrificed 2 days post infection and the total bacterial load was assessed in the peritoneal supernatant (Extracellular bacteria), peritoneal cells (Intracellular bacteria) or in the kidney.
A/J mice were infected with USA300 and administered 50 mg/Kg of either S4497 antibody or S4497-pipBOR AAC 102 thirty minutes after infection. After 2 days, the mice were sacrificed and bacterial loads were monitored in the peritoneal wash and the kidney. To distinguish between extracellular and intracellular bacteria, the peritoneal wash was centrifuged gently to separate the supernatant, containing extracellular bacteria, and the peritoneal cells. […]

MRSA (USA300 strain) [6] = assay: Intracellular killing in macrophages and non-phagocytic cell types (MG63, A549, HUVEC); assay type: cell-based, Staphylococcus aureus; details: 50 μg/mL, macrophages
From the text: MRSA is able to invade a number of non-phagocytic cell types including osteoblasts and various epithelial and endothelial cell types (Garzoni and Kelly, (2008) Trends in Microbiology). MRSA is able to infect an osteoblast cell line (MG63), an airway epithelial cell line (A549) and primary cultures of human umbilical vein endothelial cells (HUVEC). […] The dashed line indicates the limit of detection for the assay.
as §1, with “MG63 (CRL-1427) and A549 (CCL185) cell lines were obtained from ATCC and maintained in RPMI 1640 tissue culture media supplemented with 10 mM Hepes and 10% Fetal Calf Serum (RPMI-10). HUVEC cells were obtained from Lonza and maintained in EGM Endothelial Cell Complete Media (Lonza, Walkersville, Md.).” left out

MRSA (USA300 strain) [7] = assay: Intravenous infection model in A/J mice; assay type: in vivo

CCCCCCCCCC(=O)N[C@@H](Cc1c[nH]c2ccccc12)C(=O)N[C@H](CC(N)=O)C(=O)N[C@@H](CC(=O)O)C(=O)N[C@@H]1C(=O)NCC(=O)N[C@@H](CCCN)C(=O)N[C@@H](CC(=O)O)C(=O)N[C@H](C)C(=O)N[C@@H](CC(=O)O)C(=O)NCC(=O)N[C@H](CO)C(=O)N[C@@H]([C@H](C)CC(=O)O)C(=O)N[C@@H](CC(=O)c2ccccc2N)C(=O)O[C@@H]1C [Daptomycin]
MIC ([1]; Staphylococcus aureus, 24 h, MRSA inside mouse peritoneal macrophages, […]): > 100 µg/mL
killing of intracellular MRSA sequestered inside macrophages [1]: failed to kill
MIC [2]: 4 µg/mL (≈ 2.47 µM)

CC(=O)NC[C@H]1CN(c2ccc(N3CCOCC3)c(F)c2)C(=O)O1 [Linezolid]
killing of intracellular MRSA sequestered inside macrophages [1]: failed to kill

CO[C@H]1/C=C/O[C@@]2(C)Oc3c(C)c(O)c4c(=O)c(c5oc6cc(N7CCC(N(C)C)CC7)cc(O)c6nc-5c4c3C2=O)NC(=O)/C(C)=C\C=C\[C@H](C)[C@H](O)[C@@H](C)[C@@H](O)[C@@H](C)[C@H](OC(C)=O)[C@@H]1C [dimethyl-pipBOR, dimethylpiperidyl benzoxazino rifamycin]
efficacy against established infection (MRSA [3]): failed to clear the infection
killing of intracellular MRSA as free antibiotics relative to rifampicin [1]: more potent than rifampicin

piperidyl benzoxazino rifamycin [pipBOR]
killing of intracellular MRSA as free antibiotics relative to rifampicin [1]: more potent than rifampicin

thio-S4497 WT (V8), LC V205C-(thiostrepton) [AAC 128]
Macrophage assay activity [4]: 0

thio-S4497-HC-A118C-MC-vc-PAB-(clindamycin) [AAC 101]
Macrophage assay activity [4]: 0

thio-S4497-HC-A118C-MC-vc-PAB-(novobiocin) [AAC 102]
Macrophage assay activity [4]: 0

thio-S4497-HC-A118C-MC-vc-PAB-(retapamulin) [AAC 103]
Macrophage assay activity [4]: 0

thio-S4497-HC-A118C-MC-vc-PAB-(triclosan) [AAC 109]
Macrophage assay activity [4]: 0

thio-S4497-HC-A118C-MC-vc-PABC-(GSK-2140944) [AAC 105]
Macrophage assay activity [4]: 0

thio-S4497-HC-A118C-MC-vc-PABC-(ampicillin) [AAC 113]
Macrophage assay activity [4]: 0

thio-S4497-HC-A118C-MC-vc-PABC-(daptomycin) [AAC 104]
Macrophage assay activity [4]: 0

thio-S4497-HC-A118C-MC-vc-PABC-(pipBOR) [S4497-pipBOR AAC 102]
inhibition of bacterial growth by AAC not pre-treated with cathepsin B (MRSA [5]): did not result in inhibition of bacterial growth
clearance of infection (peritoneal wash and kidney) (MRSA (USA300)): cleared the infection to below the limit of detection
intracellular killing of MRSA (MRSA (USA300 strain) [6]): effectively killed
efficacy at 50 mg/Kg (kidney bacterial load) (MRSA (USA300 strain) [7]; 50 mg/Kg IV 30 minutes post infection, kidneys 4 days post infection): cleared the infection in all of the mice tested; also recorded: effective
efficacy at lower doses (MRSA (USA300 strain) [7]; doses below 50 mg/Kg down to 2 m/Kg, 30 minutes after infection): only partially efficacious

thio-S4497-HC-A118C-MC-vc-PABC-(sitafloxacin) [AAC 107]
CFU/well after treatment [4]: about 5,000 CFU/well
Macrophage assay activity [4]: weak

thio-S4497-HC-A118C-MC-vc-PABC-(teicoplanin) [AAC 108]
CFU/well after treatment [4]: about 500 CFU/well
Macrophage assay activity [4]: weak

thio-S4497-v8-LC-V205C-(azithromycin) [AAC 121]
Macrophage assay activity [4]: 0

thio-S4497-v8-LC-V205C-(thiostrepton) [AAC 141]
Macrophage assay activity [4]: 0

thio-S4497-v8-LC-V205C-MC-vc-PABC-(teicoplanin) [AAC 140]
Macrophage assay activity [4]: 0

thio-S4497-v8-LC-cys-MC-vc-PAB-(nosiheptide) [AAC 149]
Macrophage assay activity [4]: 0
